Data from patent publication US10543254B2, “Composition containing neuropeptide Y for inhibiting side effects of anticancer agents” (KYUNGPOOK NATIONAL UNIVERSITY INDUSTRY-ACADEMIC COOPERATION …, priority 2014, dated 2020).

Tests used:
[1] = tested on: cisplatin-induced neuropathy; test: Hot-plate (heated-pad) test of sensory neuropathy after seven cycles of cisplatin with or without NPY; type: in vivo, mice
Protocol: (§1) Cisplatin (Enzo; 10 mg per kg body weight once per week) was used to induce SNS injury. Mice received i.p. injections of cisplatin for 7 weeks as described. The mice were euthanized after 2 weeks after the last injection of cisplatin (for full bone marrow recovery).
(§2) To assess neuroprotection from cisplatin, mice were injected i.p. with NPY (Bachem, H-6375) daily during the 7-week cisplatin treatment period.
For measuring effects of different treatments on sensory responses, a hot-plate test was performed.
A hot plate (Leica) was maintained at 50° C. and each mouse was positioned on the end of the heated surface, first nociception, that is, a time until jumping or paw licking was measured. A cut-off time was set as 60 seconds. For the measurement, the heated surface was cleaned with a detergent and ethanol and a temperature was maintained at 50° C.
Next, control, Lyz2-cre; Y1^fl/fl, or Col1a1-cre; Y1^fl/fl mice were treated with seven cycles of cisplatin for the induction of neuropathy. In some animals, NPY was administered during cisplatin chemotherapy. […]
FIG. 2B illustrates a quantitative analysis result of sympathetic neuropathy (after 2 weeks after the last cisplatin injection) in a control group, Lyz2-cre; Y1^fl/fl or Col1a1-cre; Y1^fl/fl mice treated with cisplatin alone or cisplatin and NPY (n=6-10 mice per group, i.p). […]

[2] = tested on: cisplatin-induced bone marrow injury; test: Complete blood count 4 weeks after bone marrow transplantation; type: in vivo, mice; conditions: for HCT (hematocrit) / Hgb (hemoglobin) / MCH (mean corpuscular hemoglobin) / MCHC (mean corpuscular hemoglobin concentration) / MCV (mean cell volume) / MPV (mean platelet volume) / PLT (platelets) / RBC (red blood cell) / RDW-CV (red cell volume distribution width-coefficient of variation) / WBC (white blood cell): complete blood count 4 weeks after transplantation, groups PBS or cisplatin / PBS or NPY
Text: (§3) The mice were lethally irradiated (10 Gy, two split doses) and injected with 1×10^6 BM from CD45.1^+ (BoyJ) mice. After 4 weeks, the mice were sacrificed, and bone marrow and blood were obtained for analysis.
(§4) Next, to evaluate further whether NPY treatment prevents cisplatin-induced mouse death and injury of BM, bone marrow mononuclear cells (BMNCs) were transplanted into cisplatin-treated mice with or without NPY treatment after lethal irradiation. FIG. 2H illustrates an experimental design for verifying whether NPY protects a Th^+ fiber from cisplatin-induced bone marrow injury and whether to accelerate posttransplant bone marrow recovery.
Table 1 is a diagram illustrating an increase in blood cell recovery in NPY-treated mice after cisplatin treatment. A complete blood count was performed by targeting PBS or cisplatin-treated mice after 4 weeks after transplantation and after NPY treatment.

[3] = tested on: cisplatin-induced bone marrow injury; test: Bone marrow transplantation after lethal irradiation in cisplatin-treated mice with or without NPY: survival and bone marrow recovery; type: in vivo
Protocol: as §1, §2, §3, §4
FIG. 2I illustrates a survival result of mice of each group (n=10-15 mice per group).
FIG. 2J is a diagram illustrating the number of BMNCs (left side), a percentage of LSK cells (middle), and LT-HSCs (right side) in BM of WT mice treated with PBS, cisplatin or NPY, which are evaluated after 4 weeks after transplanting bone marrow (n=5-6 mice per group).
FIG. 2K illustrates a percentage of nestin-positive and CD31^+ endothelial cells in the femur of each group.

[4] = tested on: cisplatin-induced sympathetic nervous system (SNS) injury; test: Quantification of Th+ fibers and nestin-positive and CD31+ endothelial cells in bone marrow after cisplatin with or without NPY; type: in vivo, mice
Protocol: as §1, §2
Next, control, Lyz2-cre; Y1^fl/fl, or Col1a1-cre; Y1^fl/fl mice were treated with seven cycles of cisplatin for the induction of neuropathy. In some animals, NPY was administered during cisplatin chemotherapy. FIG. 2A is an experimental design for determining an effect of the Y1 receptor in the macrophages or osteoblasts in cisplatin-induced neuropathy, after NPY treatment.
Further, FIG. 2E is a diagram illustrating a quantitative analysis of a Th^+ fiber in BM of each group (n=5-6 mice per group).
FIG. 2F is a diagram illustrating the number (n=5-6 mice per group) of nestin-positive and CD31^+ endothelial cells per femoral region of each group.

[5] = NPY i.p. daily during 7-week cisplatin treatment, cisplatin-treated control or Col1a1-cre, Y1fl/fl mice

Compound	sensory neuropathy (hot-plate latency) ([1]; 2 weeks after the last injection, cisplatin 10 mg per kg i.p. once per week for 7 weeks)	HCT (hematocrit) [2] [%]	Hgb (hemoglobin) [2] [g/dL]	MCH (mean corpuscular hemoglobin) [2] [pg]	MCHC (mean corpuscular hemoglobin concentration) [2] [g/dL]	MCV (mean cell volume) [2] [fL]	MPV (mean platelet volume) [2] [fL]	PLT (platelets) [2] [m/mm^3]	RBC (red blood cell) [2] [m/mm^3]	RDW-CV (red cell volume distribution width-coefficient of variation) [2] [%]	WBC (white blood cell) [2] [m/mm^3]	numbers of nestin-positive and CD31+ endothelial cells in the femur ([3]; cisplatin-treated mice after transplantation)	bone marrow function after transplantation (BMNCs, LSK cells, LT-HSCs) ([3]; cisplatin-treated mice, 4 weeks after transplanting bone marrow)	mouse survival ([3]; cisplatin-treated mice, lethal irradiation and BMNC transplantation)	sensory neuropathy (hot-plate latency) [1, 5]	number of nestin-positive and CD31+ endothelial cells [4, 5]	reduced density of Th+ fibers in BM [4, 5]	protection of Th+ fibers and perivascular niche cells ([4]; cisplatin-treated Lyz2-cre, Y1fl/fl mice (no Y1 receptor in macrophages))	blood cell recovery ([2]; NPY-treated mice after cisplatin treatment, 4 weeks after transplantation)
N.N.[Cl][Pt][Cl] [Cisplatin, cisplatin, reference compound]	had sensory neuropathy	53.5 ± 6.1	12.8 ± 0.8	17.1 ± 0.8	27.0 ± 4.2	66.1 ± 5.2	11.3 ± 2.3	165.7 ± 42.4	6.1 ± 0.8	19.4 ± 0.3	2.2 ± 0.4	–	–	–	–	–	–	–	–
neuropeptide Y [NPY]	–	49.5 ± 9.3	14.4 ± 0.9	17.35 ± 1.4	33.2 ± 7.6	58.2 ± 8.8	11.4 ± 2.8	219.3 ± 65.8	8.4 ± 0.4	19.4 ± 0.8	5.3 ± 0.4	restored	restored	enhanced	improved	improved	improved	did not show NPY-mediated protection	increase
